# Results as given in US10982337B2, “Corrosion inhibition” (SCHLUMBERGER TECHNOLOGY CORPORATION, priority 2015, dated 2021).
# Legend:
# [1] = Corrosion weight loss test on steel coupons in HCl; design: Pitting Index: scale not given here
# Description: (§1) Such “acceptable” levels of corrosion are application-specific.
# [2] = Corrosion weight loss test on steel coupons in HCl; design: Pitting Index: scale not given here; remark: listed apart in the source
# Description: as §1
# [3] = Corrosion weight loss test on steel coupons in HCl; design: Pitting Index: scale not given here; remark: listed apart in the source
# Description: as §1
# [4] = Corrosion weight loss test on steel coupons in HCl
# Description: Experiments were carried out with coupons of the following steels: • 22Cr125 also designated 2205, a duplex alloy steel which is an iron-chromium-nickel-molybdenum alloy, used (among other things) to fabricate casing. • HS80™ (TradeMark of TENARIS), a low carbon steel used to fabricate coiled tubing. • N80, a medium carbon steel used to fabricate borehole casing. • 13Cr80, an alloy steel containing 13 wt % chromium without nickel, also used to fabricate borehole casing.
# (1) Metal Type: Duplex Stainless Steel 22Cr125 Casing (2205 b6); 4 mol/L HCl, T=80° C., 3 Hours Exposure
# [5] = Solubility in hydrochloric acid solutions; type: physicochemical; conditions: compared with NMTHQ
# Description: As a result, a surfactant is required to solubilise NTHQ for corrosion testing purposes. The surfactant used in this example is P2393, a polyoxyethylene tridecyl ether, C13H27(OCH2CH2)nOH, where n=10.
# As a result, a surfactant is required to solubilise NTHQ for corrosion testing purposes. As for example 5 (NTHQ), the surfactant used to solubilise NCOTHQ is P2393, a polyoxyethylene tridecyl ether, C13H27(OCH2CH2)nOH, where n=10.
# [6] = Rotating Cylinder Electrode electrochemistry, charge transfer resistance; conditions: 5 mM inhibitor, 10 mM KI, 4 mol/L HCl, 2000 rpm, 80° C.; FIG. 6
# Description: (§2) EIS can be used to monitor the corrosion rate of a system. The parameter of interest is the charge transfer resistance, Rct, which can be thought of the ‘resistance’ to corrosion. A metal test piece is used as the working electrode in a three-electrode electrochemical cell with the corrosive solution as electrolyte. Impedance data is obtained by applying a small alternating voltage to the working electrode and measuring the resulting current to obtain a value of impedance. This is done at a range of frequencies. Then, in order to extract the parameter of interest, the metal/inhibitor/electrolyte interfaces are modelled as an electrical equivalent circuit and the theoretical impedance is fitted to the data. […] Charge transfer resistance, Rct, is measured. Charge transfer resistance, Rct is a measure for corrosion resistance, and is inversely proportional to corrosion rate (CR). Therefore 1/Rct is proportional to CR.
# [7] = as above; conditions: 5 mM inhibitor, 10 mM KI, 4 mol/L HCl, 2000 rpm, 80° C.; FIG. 6; remark: listed apart in the source
# Description: as §2
# [8] = 0.1542 wt % (5.13 mmol/L), KI 0, 2205 (b9), 5 mL 2-butoxyethanol in 200 mL 4 mol/L HCl
compound,measurement,setting,value
c1ccc2c(CN3CCC[C@H]4CCCC[C@@H]43)cccc2c1 [4aR-8aS-NMDHQ],Pitting Index,"[1]; 0.3098 wt % (11.09 mmol/L), KI 0",1
same,Pitting Index,"[2]; 0.3087 wt % (11.05 mmol/L), KI 0",2
same,Pitting Index,"[3]; 0.3076 wt % (11.01 mmol/L), KI 0, 13Cr",2
same,Pitting Index,"[4]; 0.3095 wt % (11.08 mmol/L), KI 0, 2205 (b8)",1
"c1ccc2c(CNCCc3c[nH]c4ccccc34)cccc2c1 [HINNME, 2-(1H-indol-3-yl)-N-(naphthalene-1-ylmethyl)ethan-1-amine]",Pitting Index,"[4]; 0.1500 wt % (4.99 mmol/L) + KI 20 mmol/L, 2205 (b9), 5 mL 2-butoxyethanol in 200 mL 4 mol/L HCl",0
same,Pitting Index,[4]; [8],2
"[I-].[K+] [KI, potassium iodide, reference compound]",Pitting Index,"[1]; KI 10 mmol/L alone, no NMTHQ",5
same,Pitting Index,"[2]; KI 10 mmol/L alone, no NMTHQ",2
same,Pitting Index,"[3]; KI 10 mmol/L alone, no NMTHQ",5
same,Pitting Index,"[4]; KI 10 mmol/L alone, no organic inhibitor, 2205 (b5)",5
same,Pitting Index,"[4]; KI 20 mmol/L alone, no organic inhibitor, 2205 (b5), 4 mol/L HCl, 80° C., 3 hours",5
"O=C(c1cccc2ccccc12)N1CCCc2ccccc21 [NCOTHQ, (3,4-dihydroquinolin-1(2H)-yl)(naphthalene-1-yl)methanone]",solubility in hydrochloric acid solutions (in words),[5],significantly less soluble than NMTHQ
"c1ccc2c(CN3CCCC4CCCCC43)cccc2c1 (stereo not drawn) [NMDHQ, 1-(naphthalen-1-ylmethyl)decahydroquinoline]",Pitting Index,"[1]; 0.3068 wt % (10.98 mmol/L), KI 0",0
same,Pitting Index,"[2]; 0.3061 wt % (10.95 mmol/L), KI 0",2
same,Pitting Index,"[3]; 0.3094 wt % (11.07 mmol/L), KI 0, 13Cr",2
same,Pitting Index,"[4]; 0.1414 wt % (5.0 mmol/L) + KI 10 mmol/L, 2205 (b8)",0
same,Pitting Index,"[4]; 0.1414 wt % (5.0 mmol/L) + KI 20 mmol/L, 2205 (b8)",0
same,Pitting Index,"[4]; 0.3088 wt % (11.05 mmol/L), KI 0, 2205 (b8)",1
"NCCc1cn(Cc2cccc3ccccc23)c2ccccc12 [NMHIE, 2-(1-(Naphthalene-1ylmethyl)-1H-indol-3-yl)ethan-1-amine]",Pitting Index,"[4]; 0.1500 wt % (4.99 mmol/L) + KI 20 mmol/L, 2205 (b9), 0.5 wt % P2393 in 4 mol/L HCl",0
same,Pitting Index,"[4]; 0.1542 wt % (5.13 mmol/L), KI 0, 2205 (b9), 0.5 wt % P2393 in 4 mol/L HCl",5
same,Pitting Index,[4]; [8],3
"c1ccc2c(c1)CCN2Cc1cccc2ccccc12 [NMI, 1-(naphthalen-1-ylmethyl)indoline]",Pitting Index,"[4]; 0.1304 wt % (5.03 mmol/L), KI 0, 2205 (b9)",3
same,Pitting Index,"[4]; 0.1308 wt % (5.04 mmol/L) + KI 20 mmol/L, 2205 (b9)",0
"c1ccc2c(CN3CCOCC3)cccc2c1 [NMM, 4-(naphthalene-1-ylmethyl)morpholine]",Pitting Index,"[4]; 0.1397 wt % (5.04 mmol/L) + KI 20.12 mmol/L, 2205 (b9)",2
same,Pitting Index,"[4]; 0.1402 wt % (5.05 mmol/L), KI 0, 2205 (b9)",5
c1ccc2c(c1)CCN(Cc1ccc3ccccc3c1)C2 [NMTHisoQ],Pitting Index,"[4]; 0.1366 wt % (5.00 mmol/L) + KI 20 mmol/L, 2205 (b5), 4 mol/L HCl, 80° C., 3 hours",0
same,Pitting Index,"[4]; 0.1367 wt % (5.00 mmol/L), KI 0, 2205 (b5), 4 mol/L HCl, 80° C., 3 hours",1
"c1ccc2c(c1)CCCN2c1cccc2ccccc12 [NTHQ, 1-(naphthalen-1-yl)-1,2,3,4-tetrahydroquinoline]",Pitting Index,"[2]; 11.00 mmol/L + additive P2393, 0.5 wt %",1
same,solubility in hydrochloric acid solutions (in words),[5],significantly less soluble than NMTHQ
same,Pitting Index,"[4]; 11.00 mmol/L + additive P2393, 0.5 wt %, 2205 (b5)",3
"c1ccc2ncccc2c1 [Quinoline, reference compound]",Pitting Index,"[4]; 0.1421 wt % (11.00 mmol/L), 2205 b6, 4 mol/L HCl, 80° C., 3 hours",6
"naphthylmethylquinolinium chloride [NMQCl, reference compound]",Pitting Index,"[1]; 0.1534 wt % (5.02 mmol/L), 4 mol/L HCl, 80° C., 3 hours",3
same,Pitting Index,"[1]; 0.3386 wt % (11.07 mmol/L), 4 mol/L HCl, 80° C., 3 hours",0
same,Pitting Index,"[1]; 0.3394 wt % (11.10 mmol/L), 4 mol/L HCl, 80° C., 3 hours",0
same,Pitting Index,"[2]; 0.0015 wt % (0.05 mmol/L), 4 mol/L HCl, 80° C., 3 hours",5
same,Pitting Index,"[2]; 0.06225 wt % (2.04 mmol/L), 4 mol/L HCl, 80° C., 3 hours",0
same,Pitting Index,"[2]; 0.1531 wt % (5.01 mmol/L), 4 mol/L HCl, 80° C., 3 hours",0
same,Pitting Index,"[2]; 0.3366 wt % (11.01 mmol/L), 4 mol/L HCl, 80° C., 3 hours",0
same,Pitting Index,"[3]; 0.1545 wt % (5.05 mmol/L), 4 mol/L HCl, 80° C., 3 hours",5
same,Pitting Index,"[3]; 0.3466 wt % (11.33 mmol/L), 4 mol/L HCl, 80° C., 3 hours",0
same,"1/Rct (proportional to corrosion rate), NMHQ compared with NMQCl",[6],very similar results
same,"1/Rct (proportional to corrosion rate), NMHQ compared with NMQCl",[7],very similar results
same,Pitting Index,"[4]; 0.123 wt % (4.03 mmol/L), 2205 b6, 4 mol/L HCl, 80° C., 3 hours",4
same,Pitting Index,"[4]; 0.322 wt % (10.54 mmol/L), 2205 b6, 4 mol/L HCl, 80° C., 3 hours",0
same,Pitting Index,"[4]; 0.612 wt % (20.00 mmol/L), 2205 b6, 4 mol/L HCl, 80° C., 3 hours",0
